# According to paper PMC11468809, “An Outer Membrane Vesicle‐Based Permeation Assay (OMPA) for Assessing Bacterial Bioavailability” (Advanced Healthcare Materials, 2021):
# What was measured:
# [1] = Impact of agarose gel and vesicle coating on compound permeation; details: P app; 0.5% w/v agarose gel; Figure 7
# Description: (§1) 30 µL of the OMV or liposome suspension were given on top of membrane filters of a 96‐well filter plate (MultiScreen 96‐well filter plates with 0.4 µm PCTE membrane). Afterwards, filters were dried at 37°C inside a Memmert UF55 universal oven (fan at 100%). This process was repeated another two times. A six‐fold coating procedure was only followed for SEM‐imaging purposes. For permeation studies, the obtained coatings were covered with 40 µl of 0.5% w/v agarose solution using a direct diplacement pipette. Prior to permeation studies, the bottom of the coated filter was also coated with a thin film of 0.5% w/v agarose using a small brush.
# (§2) Coated wells were incubated on the apical and basolateral side for 30 min with PBS (pH 7.4) at 37°C while shaken at 180 rpm. After incubation, 230 µL of pre‐warmed 200 × 10^−6 M antibiotic donor solution (37°C) replaced the PBS in the respective donor wells, while 30 µL were immediately removed and diluted 1:10. The absorbance of these dilutions was measured in a receiver plate using a Tecan Infinite 200 PRO (Tecan Trading AG, Maennedorf, Switzerland) plate reader. (Table S1, Supporting Information) 300 µL of fresh PBS were given into the acceptor wells of the receiver plate followed by absorbance measurements. Donor and acceptor plates were reassembled, incubated, and disassembled after 10, 20, 30, 45, 60, 90, and 120 min to measure the absorbance in the acceptor wells.
# [2] = not told
# Description: as §1
# as §2, with “After incubation, 230 µL of pre‐warmed 200 × 10^−6 M antibiotic donor solution (37°C) replaced the PBS in the respective donor wells, while 30 µL were immediately removed and diluted 1:10.” left out
# [3] = Comparison of P app among four vesicle-derived membrane models; format: in vitro ADME; details: 200 × 10^−6 M; Figure 11
# From the text: This process was repeated another two times.
# [4] = Permeation across porin-deficient E. coli BL21 DE3 Omp8 OMV-derived membrane model; details: standard permeation assay, 200 × 10^−6 M
# Description: as §1, §2
# [5] = Porin-blocking experiment with spermine on porin-deficient membrane model; details: 15 × 10^−6 M norfloxacin, no spermine
# Description: (§4) Experiments were performed on OMVs of E. coli strains BL21 DE3 and BL21 DE3 Omp8. The procedure followed the standard protocol for permeability studies with some modifications. The membranes were incubated on both sides for 30 min either with 140 × 10^−3 M spermine solution in PBS (pH7.4) or blank PBS. […] Samples of 40 µL were taken after 5, 10, 15, 20, 25, and 30 min and analyzed by LC–MS/MS.
# (§5) An Accela UHPLC System‐Coupled TSQ Quantum Access Max tandem quadrupole mass spectrometer (both from Thermo Fisher Scientific, Waltham, MA, USA) was employed. The entire system was operated via Xcalibur 219 software (Thermo Fisher Scientific, Waltham, MA, USA). The detection of the compounds in the MS happened after heated electrospray ionization (H‐ESI) in positive ion mode. The chromatographic analysis was performed with a binary solvent mixture using optionally acetonitrile + 0.1% formic acid (A), MilliQ‐water + 0.1% formic acid (B), methanol + 0.1% formic acid (C), or ammonium formate buffer (10 × 10^−3 M, pH 3, D). […]
# (§6) Raw data obtained from the respective analytical readouts of transport studies were converted to their corresponding concentration via external calibration. […]
# (§7) The apparent permeability coefficient (P app) was calculated according to the following formula: (2) Pappcm∗s^−1=J/c0 where c 0 is the initial donor concentration (µg cm^− ^3) and J (µg cm^− ^2*s) the compound flux.
# [6] = Porin-blocking experiment with spermine on porin-containing membrane model; details: 15 × 10^−6 M norfloxacin, 140 × 10^−3 M spermine; Figure 10B
# Description: as §4, §5, §6, §7
# [7] = Membrane permeabilization experiment on bacteriomimetic liposome-derived model; format: in vitro ADME; details: fluorescein 10 × 10^−6 M after 30 min incubation with 83.1 × 10^−6 M PMB vs PBS
# Description: (§3) Afterward 240 µL of 10 × 10^−6 M fluorescein solution in PBS (pH 7.4) was added and 40 µL samples were drawn after 5, 10, 15, 20, 25, 30, 45, and 60 min and diluted 1 in 5 prior to fluorimetric quantification (λ ex = 485 nm, λ em = 530 nm).
# [8] = Membrane permeabilization experiment on OMV-derived membrane; format: in vitro ADME, Escherichia coli; details: for effect of membrane-perturbating agent on the OMV-derived model: permeability of fusidic acid or fluorescein as readout
# Description: Experiments were conducted on OMVs of E. coli BL21 DE3 Omp8 as stated above with some modifications. […] After 30 min, solutions were removed and the standard protocol was followed employing 200 × 10^−6 M fusidic acid solution and sampling after 5, 10, 15, 20, 25, 30, 45, and 60 min. The quantification was done via LC–MS/MS.
# as §3
compound,measurement,setting,value
CO[C@H]1/C=C/O[C@@]2(C)Oc3c(C)c(O)c4c(O)c(c(/C=N/N5CCN(C)CC5)c(O)c4c3C2=O)NC(=O)/C(C)=C\C=C\[C@H](C)[C@H](O)[C@@H](C)[C@@H](O)[C@@H](C)[C@H](OC(C)=O)[C@@H]1C [rifampicin],permeability with the vesicle coating compared to pure agarose gel coating,[1],significantly lower
same,permeability across the eukaryotic membrane model compared with the other models,[2],comparable permeability
same,difference in permeability throughout the OMV- and the bacteriomimetic liposome-based model,[3],no significant difference
CCn1cc(C(=O)O)c(=O)c2cc(F)c(N3CCNCC3)cc21 [norfloxacin],permeability compared with the porin-containing BL21 DE3 OMV-derived model,[4],lower
same,permeability compared with the porin-containing model,[5],significantly decreased permeability
same,permeability coefficients in presence vs absence of spermine,[6],significantly different
CO[C@@H]1[C@@H](OC(N)=O)[C@@H](O)[C@H](Oc2ccc3c(O)c(NC(=O)c4ccc(O)c(CC=C(C)C)c4)c(=O)oc3c2C)OC1(C)C [novobiocin],permeability with the vesicle coating compared to pure agarose gel coating,[1],significantly lower
O=C1OC2(c3ccc(O)cc3Oc3cc(O)ccc32)c2ccccc21 [fluorescein],permeation after treatment with PMB,[7],permeated significantly slower
same,change in permeability after membrane-perturbating agent,[8]; fluorescein 10 × 10^−6 M after 30 min incubation with 83.1 × 10^−6 M PMB vs PBS,none of the membrane‐perturbating agents caused significant changes
CN[C@H](CC(C)C)C(=O)N[C@H]1C(=O)N[C@@H](CC(N)=O)C(=O)N[C@H]2C(=O)N[C@H]3C(=O)N[C@H](C(=O)N[C@H](C(=O)O)c4cc(O)cc(O)c4-c4cc3ccc4O)[C@H](O)c3ccc(c(Cl)c3)Oc3cc2cc(c3O[C@@H]2O[C@H](CO)[C@@H](O)[C@H](O)[C@H]2O[C@H]2C[C@](C)(N)[C@H](O)[C@H](C)O2)Oc2ccc(cc2Cl)[C@H]1O [vancomycin],trend of permeability the fewer outer membrane features the model has,[3],gradual decrease of permeability
O=C(N[C@H](CO)[C@H](O)c1ccc([N+](=O)[O-])cc1)C(Cl)Cl [chloramphenicol],permeability compared with the porin-containing BL21 DE3 OMV-derived model,[4],did not lead to a significant drop of permeation
CCn1cc(C(=O)O)c(=O)c2ccc(C)nc21 [nalidixic acid],permeability across the eukaryotic membrane model compared with the other models,[2],increased
same,difference in permeability throughout the OMV- and the bacteriomimetic liposome-based model,[3],no significant difference
Polymyxin B [PMB],effect of membrane-perturbating agent on the OMV-derived model,[8],lack of effect
PMB nonapeptide [PMBN],effect of membrane-perturbating agent on the OMV-derived model,[8],lack of effect
CC(=O)O[C@H]1C[C@@]2(C)[C@@H](C[C@@H](O)[C@H]3[C@@]4(C)CC[C@@H](O)[C@@H](C)[C@@H]4CC[C@@]32C)/C1=C(\CCC=C(C)C)C(=O)O [Fusidic acid],change in permeability after membrane-perturbating agent,[8]; fusidic acid 200 × 10^−6 M after 30 min incubation with 103.8 × 10^−6 M PMBN vs PBS,none of the membrane‐perturbating agents caused significant changes
CN(C)[C@@H]1C(O)=C(C(N)=O)C(=O)[C@@]2(O)C(O)=C3C(=O)c4c(O)cccc4[C@@](C)(O)[C@H]3C[C@@H]12 [tetracycline],permeability with the vesicle coating compared to pure agarose gel coating,[1],significantly lower
same,permeability compared with the porin-containing BL21 DE3 OMV-derived model,[4],did not lead to a significant drop of permeation
